Results as given in patent US10472341B2, “Bicyclic tetrahydrothiazepine derivatives useful for the treatment of neoplastic and/or infectious diseases” (APEIRON BIOLOGICS AG, priority 2015, dated 2019).
Where two headings read alike, the source gives them in different places.

Legend:
[1] = tested on: CD4 T cells, CD8 T cells and NK cells of B16-F10-OVA tumor bearing mice; experiment: Immune modulation of B16-F10-OVA tumor bearing mice: activation markers in tumor draining lymph nodes (flow cytometry); format: in vivo, mouse; conditions: day 15
Experimental: (§1) • Single cell suspension of splenocytes was prepared from the spleen by rinsing cells through a sterile 70 μm filter with PBS • Cells were collected by centrifugation in an 15 ml tube, the cell pellet was resuspended in 1 ml of Erylyse buffer and incubated at room temperature for 5 minutes, tubes were filled up with PBS and cells were washed twice • Cells were counted and resuspended in the desired buffer volume for MACS-enrichment or flow cytometric analysis Isolation of CD4 T Cells from OT-II Transgenic Mice • Splenocytes were resuspended in MACS buffer ([…] MACS-buffer/10^7 cells) • CD4 T cells were isolated using the CD4 T cell isolation kit (Miltenyi) with LS-columns following manufacturer's recommendations CFSE-Labeling of T Cells • Cells were resuspended in PBS with 0.1% BSA at 1×10^7 cells/ml and CFSE-solution was added to final concentration of 2.5 μM CFSE • Incubated for 10 min at 37° C., swung each 2 min • Same volume of FCS added and incubated for 5 min at room temperature • Cells were washed twice with RMPI-10% FCS medium • Cells were counted and resuspended in PBS or medium at desired concentration OT-II Transfer • Day 0: OT-II cells were transferred in PBS (3*10^6. Cells in 100 μl PBS) by retro-orbital injection • Day 1: WT mice got OVA vaccinated (subcut. flank, 10 μg LPS, 2 μg OVA per animal) • 2 & 4 h later compounds were administrated; for oral dosing compound was used as suspension (0.5% methylcellulose in water), for i.v. dosing compound was solubilized in DMSO and diluted with PBS • Day 2: compounds were administrated twice in the morning (with 2 h time interval) • Day 3: Mice were sacrificed & splenocytes were isolated • T cell proliferation & phenotype was determined by flow cytometry • Flow cytometry-Staining (all Abs purchased from eBioscience and used as recommended by the manufacturer): B220-eF450, CD4-PE, CD25PerCPCy5.5, CD69-PC7, TCRVa2-APC, CD8-AF700, CD3-eF780; CFSE; 7-AAD • Acquisition on Beckman-Coulter Gallios, Analysis using Kaluza Software OT-I Transfer to Mice with B16-F10-OVA Tumors • Day 0: 100000 B16-F10-OVA tumor cells were inoculated subcutaneously at the flank of WT-mice • Day 7: OT-I cells were transferred in PBS (3*10^6. […]

B16-F10-OVA tumors = experiment: Immune modulation of B16-F10-OVA tumor bearing mice: tumor infiltration by immune cells (quantitative RT-PCR); format: in vivo, mouse; conditions: tumor mRNA
Experimental: as §1

[2] = tested on: aCD3/aCD28-stimulated human PBMCs; experiment: Cytokine production in aCD3/aCD28 stimulated human PBMCs; format: cell-based; conditions: PBMC, 18 h
Summary of the method: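 Compound effects measured in buffy-coat PBMCs activated 18 h at 37° C by 1 μg/mL each of soluble anti-CD3 (OKT3) and anti-CD28 (28.2), 1e6 cells/mL. Cytokines in harvested supernatants read by MSD or HTRF.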

[3] = tested on: aCD3/aCD28-stimulated human CD4+-T-cells; experiment: IL-2 production and activation markers in aCD3/aCD28 stimulated isolated human CD4+-T-cells; format: cell-based; conditions: IL-2 production at 3 μM compound
Summary of the method: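 CD4+ T cells isolated from buffy-coat PBMCs by microbeads were plated in Xvivo medium (1.5*10^5 cells/well) and stimulated with anti-CD3/28 mAbs plus compound. IL-2 measured by ELISA in supernatants at 24 h or 48 h; CD25 and proliferation by flow cytometry, CD69 at 24 h. Activity classes based on IL-2 at 3 μM compound.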

CD4 T cells = experiment: CD69 expression on aCD3/aCD28 stimulated isolated human CD4 T cells (flow cytometry); format: cell-based; conditions: 24 h after TCR stimulation, read-out: Activity Class CD69 (CD4)
Summary of the method: (§2)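 Isolated CD4 and CD8 T cells plated at 80000 cells per well in Xvivo medium and stimulated with anti-CD3/28 mAbs in presence of compound. CD69 expression measured by flow cytometry 24 h after TCR stimulation.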

CD8 T cells = experiment: CD69 expression on aCD3/aCD28 stimulated isolated human CD8 T cells (flow cytometry); format: cell-based; conditions: T-cell, 24 h after TCR stimulation, read-out: Activity Class CD69 (CD8)
Summary of the method: as §2

non-stimulated PBMCs = experiment: Non-stimulated PBMCs: cytokine secretion and signs of T-cell activation; format: cell-based, human
Source text: This is an important finding for compounds that shall selectively act on T cells which have been activated by presence of antigen from pathogens or tumors, but shall not lead to an unwanted general activation of all T cells of a patient.

OT-II cells = experiment: OT-II transfer model, oral administration: antigen-specific T cell proliferation and CD69; format: in vivo, mouse; conditions: LPS & OVA; 10 mg/kg dosed orally
Experimental: as §1

[4] = enhancement of IFN-γ production, read-out: Activity Class IFN-γ
[5] = enhancement of IL-2 production, read-out: Activity Class IL-2

With `N[C@H]1CS(=O)(=O)c2cc(F)c(C(=O)NC3CC3(F)F)cc2N(Cc2ccc(Cl)cc2)C1=O` (some centres unmarked) [Compound Ex. 1] the “Average CD25+ cells” value ([1]; CD4 T cells, 10 mg/kg orally) was 15.63 % gated, the “Average CD69+ cells” value ([1]; CD4 T cells, 10 mg/kg orally) was 13.34 % gated and the “Average CD107a+ cells” value ([1]; CD4 T cells, 10 mg/kg orally) was 5.03 % gated. The “Average PD1+ cells” value ([1]; CD4 T cells, 10 mg/kg orally) was 10.73 % gated, the “Average CD25+ cells” value ([1]; CD4 T cells, 30 mg/kg orally) was 15.91 % gated and the “Average CD69+ cells” value ([1]; CD4 T cells, 30 mg/kg orally) was 14.25 % gated. For the same compound, the “Average CD107a+ cells” value ([1]; CD4 T cells, 30 mg/kg orally) was 5.43 % gated, the “Average PD1+ cells” value ([1]; CD4 T cells, 30 mg/kg orally) was 10.36 % gated and the “Average CD25+ cells” value ([1]; CD8 T cells, 10 mg/kg orally) was 1.95 % gated. The “Average CD69+ cells” value ([1]; CD8 T cells, 10 mg/kg orally) was 5.25 % gated, the “Average CD107a+ cells” value ([1]; CD8 T cells, 10 mg/kg orally) was 2.00 % gated and the “Average PD1+ cells” value ([1]; CD8 T cells, 10 mg/kg orally) was 3.12 % gated. For the same compound, the “Average CD25+ cells” value ([1]; CD8 T cells, 30 mg/kg orally) was 2.88 % gated, the “Average CD69+ cells” value ([1]; CD8 T cells, 30 mg/kg orally) was 5.91 % gated and the “Average CD107a+ cells” value ([1]; CD8 T cells, 30 mg/kg orally) was 4.24 % gated. For the same compound, the “Average PD1+ cells” value ([1]; CD8 T cells, 30 mg/kg orally) was 6.71 % gated, the “Average CD69+ cells” value ([1]; NK cells, 10 mg/kg orally) was 34.43 % gated and the “Average CD107a+ cells” value ([1]; NK cells, 10 mg/kg orally) was 12.85 % gated. The “Average PD1+ cells” value ([1]; NK cells, 10 mg/kg orally) was 19.91 % gated, the “Average CD69+ cells” value ([1]; NK cells, 30 mg/kg orally) was 32.55 % gated and the “Average CD107a+ cells” value ([1]; NK cells, 30 mg/kg orally) was 10.98 % gated. The “Average PD1+ cells” value ([1]; NK cells, 30 mg/kg orally) was 13.61 % gated, the “Average CD4 expression” value (B16-F10-OVA tumors; 10 mg/kg orally) was 7.07 EF1a * 10^4 and the “Average CD8 expression” value (B16-F10-OVA tumors; 10 mg/kg orally) was 6.28 EF1a * 10^4. For the same compound, the “Average IFN-g expression” value (B16-F10-OVA tumors; 10 mg/kg orally) was 0.75 EF1a * 10^4, the “Average IL-2 expression” value (B16-F10-OVA tumors; 10 mg/kg orally) was 0.043 EF1a * 10^4 and the “Average IL-12 expression” value (B16-F10-OVA tumors; 10 mg/kg orally) was 0.074 EF1a * 10^4. The “Average IL-23 expression” value (B16-F10-OVA tumors; 10 mg/kg orally) was 0.480 EF1a * 10^4, the “Average Ratio Eomes/Foxp3” value (B16-F10-OVA tumors; 10 mg/kg orally) was 0.66 and the “Average Ratio Rorgc/Foxp3” value (B16-F10-OVA tumors; 10 mg/kg orally) was 5.38. For the same compound, the “Average Ratio T-bet/Foxp3” value (B16-F10-OVA tumors; 10 mg/kg orally) was 8.35, the “Average TNF-a expression” value (B16-F10-OVA tumors; 10 mg/kg orally) was 9.96 EF1a * 10^4 and the “Average CD4 expression” value (B16-F10-OVA tumors; 30 mg/kg orally) was 9.65 EF1a * 10^4. For the same compound, the “Average CD8 expression” value (B16-F10-OVA tumors; 30 mg/kg orally) was 10.72 EF1a * 10^4, the “Average IFN-g expression” value (B16-F10-OVA tumors; 30 mg/kg orally) was 1.23 EF1a * 10^4 and the “Average IL-2 expression” value (B16-F10-OVA tumors; 30 mg/kg orally) was 0.085 EF1a * 10^4. For the same compound, the “Average IL-12 expression” value (B16-F10-OVA tumors; 30 mg/kg orally) was 0.120 EF1a * 10^4, the “Average IL-23 expression” value (B16-F10-OVA tumors; 30 mg/kg orally) was 0.611 EF1a * 10^4 and the “Average Ratio Eomes/Foxp3” value (B16-F10-OVA tumors; 30 mg/kg orally) was 0.64. The “Average Ratio Rorgc/Foxp3” value (B16-F10-OVA tumors; 30 mg/kg orally) was 6.17, the “Average Ratio T-bet/Foxp3” value (B16-F10-OVA tumors; 30 mg/kg orally) was 9.59 and the “Average TNF-a expression” value (B16-F10-OVA tumors; 30 mg/kg orally) was 14.97 EF1a * 10^4.

For `Cl.N[C@H]1CS(=O)(=O)c2cc(F)c(C(=O)NCCCC(F)(F)F)cc2N(Cc2ccc(OC(F)(F)F)cc2)C1=O` [Example 73, (3R)-3-amino-8-fluoro-1,1,4-trioxo-N-(4,4,4-trifluorobutyl)-5-{[4-(trifluoromethoxy)-phenyl]methyl}-2,3,4,5-tetrahydro-1λ^6,5-benzothiazepine-7-carboxamide hydrochloride], the EC50 [2, 4] was < 1580 nM, the EC50 [2, 5] was < 1580 nM and the “Activity Class CD4+” value [3] was “A (IL-2 production at 3 μM compound concentration >10 ng/mL)”. The EC50 (CD4 T cells) was < 1580 nM and the EC50 (CD8 T cells) was < 1580 nM.

For `CC(=O)NCCCCCOc1ccc(CNC(=O)c2ccc3c(c2)N(Cc2ccc(Cl)cc2)C(=O)[C@@H](N)CS3(=O)=O)cc1.Cl` [Example 78, (3R)-3-amino-5-[(4-chlorophenyl)methyl]-N-({4-[(5-acetamidopentyl)oxy]phenyl}-methyl)-1,1,4-trioxo-2,3,4,5-tetrahydro-1λ^6,5-benzothiazepine-7-carboxamide hydrochloride], the EC50 [2, 4] was < 1580 nM, the EC50 [2, 5] was < 1580 nM and the “cytokine secretion or other signs of T-cell activation” value (non-stimulated PBMCs) was “did not enhance cytokine secretion or other signs of T-cell activation”.

`Cl.N[C@H]1CS(=O)(=O)c2cc(F)c(C(=O)NC3CCC(F)(F)C3)cc2N(Cc2ccc(Cl)cc2)C1=O` (stereo partly drawn) [Example 105, (3R)-3-amino-5-[(4-chlorophenyl)methyl]-N-(3,3-difluorocyclopentyl)-8-fluoro-1,1,4-trioxo-2,3,4,5-tetrahydro-1λ^6,5-benzothiazepine-7-carboxamide hydrochloride] was tested, and the EC50 [2, 4] was < 1580 nM, the EC50 [2, 5] was < 1580 nM and the “Activity Class CD4+” value [3] was “A (IL-2 production at 3 μM compound concentration >10 ng/mL)”. The EC50 (CD4 T cells) was < 1580 nM and the EC50 (CD8 T cells) was < 1580 nM.

`N[C@H]1CS(=O)(=O)c2cc(F)c(C(=O)NC3CC3(F)F)cc2N(Cc2ccc(Cl)cc2)C1=O` (some centres unmarked) [compound ex. 1] was tested, and the “CD69+ cells, B cells of recipient animal” value (OT-II cells) was 2.10 % gated, the “CD69+ cells, CD8 T cells of recipient animal” value (OT-II cells) was 3.48 % gated and the “CD69+ cells, WT CD4 T cells of recipient animal” value (OT-II cells) was 7.00 % gated. For the same compound, the “CD69+ cells, transferred OT-II cells” value (OT-II cells) was 46.92 % gated.
